Results reported in patent publication US6586402B1, “LH-RH peptide analogues, their uses and pharmaceutical compositions containing them” (Laboratoire Theramex, priority 1997, dated 2003).
Entries after “also recorded” stand apart in the source; their conditions may differ. Square brackets hold non-standard residues; d marks the D form. Peptide text beside a SMILES is read from it. 1Nal = N[C@@H](Cc1cccc2ccccc12)C(=O)O; 2Nal = N[C@@H](Cc1ccc2ccccc2c1)C(=O)O; Bta = N[C@@H](Cc1csc2ccccc12)C(=O)O; tBuAla = CC(C)(C)C[C@H](N)C(=O)O; d3Pal = N[C@H](Cc1cccnc1)C(=O)O; d4Pal = N[C@H](Cc1ccncc1)C(=O)O; pGlu = O=C1CC[C@@H](C(=O)O)N1

Experiments:
LH-RH receptors = target: T1, LH-RH receptors (Rattus norvegicus, UniProt P30969); assay: Stimulation of testosterone secretion in adult male rats after subcutaneous injection (agonist activity in vivo); parameters: exert an agonist activity upon the LH-RH receptors in vivo; from tissue; host or cells: whole animal, adult male Sprague-Dawley rats; species or system Sprague-Dawley rats; settings: for Total plasma testosterone: 10 ng/kg subcutaneous in PBS, blood two hours later, male Sprague-Dawley rats; for agonistic potency in words: comment on Tables 2 and 3
T1 sequence (P30969 1-327): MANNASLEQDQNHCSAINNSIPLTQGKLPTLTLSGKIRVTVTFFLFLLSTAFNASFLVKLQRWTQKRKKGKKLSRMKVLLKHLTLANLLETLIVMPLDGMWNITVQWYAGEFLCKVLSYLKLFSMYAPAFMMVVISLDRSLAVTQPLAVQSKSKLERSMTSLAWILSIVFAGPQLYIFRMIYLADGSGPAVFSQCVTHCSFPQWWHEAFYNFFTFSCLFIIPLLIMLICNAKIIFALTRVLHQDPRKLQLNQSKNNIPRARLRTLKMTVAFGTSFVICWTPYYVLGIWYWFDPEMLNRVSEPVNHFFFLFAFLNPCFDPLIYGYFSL
Method: The peptides according to the general formula (IIa) exert an agonist activity upon the LH-RH receptors in vivo, resulting in the stimulation of LH secretion by the pituitary, which, in males, stimulates the secretion of testosterone by the testis.
Two hours later, blood samples were drawn for total plasma testosterone determination by direct radioimmunoassay (Immunotech).
At this intermediate dose of 10 ng/kg, several examples with Npg^7 or Ada^7 in place of Leu^7 according to the invention were screened for agonistic activity (Tables 2 and 3). When available from Bachem (France) or Sigma (France), the corresponding standard agonist with Leu^7 was tested for comparison.

[1] = target: LH-RH receptors (membrane fractions of pituitaries from female Sprague Dawley rats) (rat (female Sprague Dawley)) (UniProt P30969); assay: competition with [125I]-buserelin, rat pituitary membranes; Ki by Cheng-Prusoff

Total plasma testosterone (LH-RH receptors; Table 2, vehicle 2.7 ± 0.3) [nmol/L]	Molecule	agonistic potency in words (LH-RH receptors; 10 ng/kg s.c.)	other results
36.2 ± 4.5	pGlu-His-Trp-Ser-Tyr-D-Leu-Ada-Arg-Pro-NEt [Example 29]		
	CC(C)(C)C[C@H](NC(=O)CNC(=O)[C@H](Cc1ccc(O)cc1)NC(=O)[C@H](CO)NC(=O)[C@H](Cc1c[nH]c2ccccc12)NC(=O)[C@H](Cc1c[nH]cn1)NC(=O)[C@@H]1CCC(=O)N1)C(=O)N[C@@H](CCCNC(=N)N)C(=O)N1CCC[C@H]1C(=O)NCC(N)=O [Example 1, pGlu-His-Trp-Ser-Tyr-Gly-Npg-Arg-Pro-Gly-NH2]		activity in stimulating testosterone secretion relative to LH-RH (LH-RH receptors; FIG. 1, various doses s.c., 8 animals per point): a little more than twice as active as LH-RH
	pGlu-His-Trp-Ser-Tyr-D-Npg-Npg-Arg-Pro-NEt (peptide)		pKi [1]: 8.73 -log Ki
21.2 ± 6.6	CC(C)C[C@@H](NC(=O)[C@H](Cc1ccc(O)cc1)NC(=O)[C@H](CO)NC(=O)[C@H](Cc1c[nH]c2ccccc12)NC(=O)[C@H](Cc1c[nH]cn1)NC(=O)[C@@H]1CCC(=O)N1)C(=O)N[C@@H](CC(C)(C)C)C(=O)N[C@@H](CCCNC(=N)N)C(=O)N1CCC[C@H]1C(=O)NCC(N)=O [Example 5, pGlu-His-Trp-Ser-Tyr-D-Leu-Npg-Arg-Pro-Gly-NH2] ([pGlu]HWSY[dL][tBuAla]RPG-NH2)	range of potency similar to that of leuprorelin or tryptorelin	
11.8 ± 3.5	CCNC(=O)[C@@H]1CCCN1C(=O)[C@H](CCCN=C(N)N)NC(=O)[C@H](CC(C)C)NC(=O)[C@@H](Cc1c[nH]c2ccccc12)NC(=O)[C@H](Cc1ccc(O)cc1)NC(=O)[C@H](CO)NC(=O)[C@H](Cc1c[nH]c2ccccc12)NC(=O)[C@H](Cc1cnc[nH]1)NC(=O)[C@@H]1CCC(=O)N1 [Deslorelin, reference compound]		
30.8 ± 3.5	CC(C)(C)C[C@H](NC(=O)[C@@H](Cc1c[nH]c2ccccc12)NC(=O)[C@H](Cc1ccc(O)cc1)NC(=O)[C@H](CO)NC(=O)[C@H](Cc1c[nH]c2ccccc12)NC(=O)[C@H](Cc1c[nH]cn1)NC(=O)[C@@H]1CCC(=O)N1)C(=O)N[C@@H](CCCNC(=N)N)C(=O)N1CCC[C@H]1C(=O)NCC(N)=O [Example 11, pGlu-His-Trp-Ser-Tyr-D-Trp-Npg-Arg-Pro-Gly-NH2] ([pGlu]HWSY[dW][tBuAla]RPG-NH2)	Npg^7 led to more potent agonists than Ada^7	activity in stimulating testosterone secretion relative to the Leu^7 counterpart (LH-RH receptors; 10 ng/kg s.c.): a little more than twice as active
	CCNC(=O)[C@@H]1CCCN1C(=O)[C@H](CCCNC(=N)N)NC(=O)[C@H](CC(C)(C)C)NC(=O)[C@@H](CC(C)C)NC(=O)[C@H](Cc1ccc(O)cc1)NC(=O)[C@H](CO)NC(=O)[C@H](Cc1ccc2ccccc2c1)NC(=O)[C@H](Cc1c[nH]cn1)NC(=O)[C@@H]1CCC(=O)N1 [Example 25, pGlu-His-2Nal-Ser-Tyr-D-Leu-Npg-Arg-Pro-NEt] ([pGlu]H[2Nal]SY[dL][tBuAla]RP-NHEt)	range of potency similar to that of leuprorelin or tryptorelin	Total plasma testosterone (LH-RH receptors; Table 3, vehicle 4.3 ± 1.2): 27.3 ± 6.9 nmol/L
	CCNC(=O)[C@@H]1CCCN1C(=O)[C@H](CCCNC(=N)N)NC(=O)[C@H](CC(C)(C)C)NC(=O)[C@@H](CC(C)C)NC(=O)[C@H](Cc1ccc(O)cc1)NC(=O)[C@H](CO)NC(=O)[C@H](Cc1csc2ccccc12)NC(=O)[C@H](Cc1c[nH]cn1)NC(=O)[C@@H]1CCC(=O)N1 [Example 26, pGlu-His-Bal-Ser-Tyr-D-Leu-Npg-Arg-Pro-NEt] ([pGlu]H[Bta]SY[dL][tBuAla]RP-NHEt)		Total plasma testosterone (LH-RH receptors; Table 3, vehicle 4.3 ± 1.2): 12.2 ± 2.7 nmol/L
	AcD-Nal-D-pClPhe-D-Pal-Ser-Tyr-D-HCit-Npg-IprLys-Pro-D-Ala-NH2 (peptide)		pKi [1]: 10.1 -log Ki
	Goserelin (peptide)		pKi [1]: 8.58 -log Ki
	CC(C)(C)C[C@H](NC(=O)[C@@H](Cc1ccncc1)NC(=O)[C@H](Cc1ccc(O)cc1)NC(=O)[C@H](CO)NC(=O)[C@H](Cc1c[nH]c2ccccc12)NC(=O)[C@H](Cc1c[nH]cn1)NC(=O)[C@@H]1CCC(=O)N1)C(=O)N[C@@H](CCCNC(=N)N)C(=O)N1CCC[C@H]1C(=O)NCC(N)=O [Example 21, pGlu-His-Trp-Ser-Tyr-D-4Pal-Npg-Arg-Pro-Gly-NH2] ([pGlu]HWSY[d4Pal][tBuAla]RPG-NH2)	range of potency similar to that of leuprorelin or tryptorelin	Total plasma testosterone (LH-RH receptors; Table 3, vehicle 4.3 ± 1.2): 32.4 ± 7.0 nmol/L
20.3 ± 2.5	CC(C)C[C@H](NC(=O)[C@@H](Cc1c[nH]c2ccccc12)NC(=O)[C@H](Cc1ccc(O)cc1)NC(=O)[C@H](CO)NC(=O)[C@H](Cc1c[nH]c2ccccc12)NC(=O)[C@H](Cc1c[nH]cn1)NC(=O)[C@@H]1CCC(=O)N1)C(=O)N[C@@H](CCCNC(=N)N)C(=O)N1CCC[C@H]1C(=O)NCC(N)=O [Tryptorelin, reference compound]		
6.4 ± 1.9	CC(C)C[C@H](NC(=O)[C@@H](C)NC(=O)[C@H](Cc1ccc(O)cc1)NC(=O)[C@H](CO)NC(=O)[C@H](Cc1c[nH]c2ccccc12)NC(=O)[C@H](Cc1c[nH]cn1)NC(=O)[C@@H]1CCC(=O)N1)C(=O)N[C@@H](CCCNC(=N)N)C(=O)N1CCC[C@H]1C(=O)NCC(N)=O [[D-Ala^6]-LH-RH, reference compound]		
	AcD-Nal-D-pClPhe-D-Pal-Ser-NicLys-D-NicLys-Npg-IprLys-Pro-D-Ala-NH2 (peptide)		pKi [1]: 9.23 -log Ki
44.9 ± 6.0	pGlu-His-Trp-Ser-Tyr-D-Ala-Ada-Arg-Pro-NEt [Example 28]	the Ada^7 replacement was more favorable than Npg^7; also recorded: more potent LH-RH agonists than current therapeutic LH-RH analogues	
28.0 ± 4.1	pGlu-His-Trp-Ser-Tyr-D-Phe-Ada-Arg-Pro-NEt [Example 27]	the Ada^7 replacement was more favorable than Npg^7	
	CCNC(=O)[C@@H]1CCCN1C(=O)[C@H](CCCNC(=N)N)NC(=O)[C@H](CC(C)(C)C)NC(=O)[C@@H](CC(C)C)NC(=O)[C@H](Cc1ccc(O)cc1)NC(=O)[C@H](CO)NC(=O)[C@H](Cc1cccc2ccccc12)NC(=O)[C@H](Cc1c[nH]cn1)NC(=O)[C@@H]1CCC(=O)N1 [Example 24, pGlu-His-1Nal-Ser-Tyr-D-Leu-Npg-Arg-Pro-NEt] ([pGlu]H[1Nal]SY[dL][tBuAla]RP-NHEt)		Total plasma testosterone (LH-RH receptors; Table 3, vehicle 4.3 ± 1.2): 14.3 ± 4.3 nmol/L
16.7 ± 4.3	CCNC(=O)[C@@H]1CCCN1C(=O)[C@H](CCCNC(=N)N)NC(=O)[C@H](CC(C)C)NC(=O)[C@@H](Cc1ccccc1)NC(=O)[C@H](Cc1ccc(O)cc1)NC(=O)[C@H](CO)NC(=O)[C@H](Cc1c[nH]c2ccccc12)NC(=O)[C@H](Cc1c[nH]cn1)NC(=O)[C@@H]1CCC(=O)N1 [[D-Phe^6, Pro^9NEt]-LH-RH, reference compound]		
	pGlu-His-Trp-Ser-Tyr-D-Ala-Npg-Arg-Pro-NEt (peptide)		pKi [1]: 10 -log Ki
30.6 ± 7.2	CCNC(=O)[C@@H]1CCCN1C(=O)[C@H](CCCNC(=N)N)NC(=O)[C@H](CC(C)C)NC(=O)[C@@H](C)NC(=O)[C@H](Cc1ccc(O)cc1)NC(=O)[C@H](CO)NC(=O)[C@H](Cc1c[nH]c2ccccc12)NC(=O)[C@H](Cc1c[nH]cn1)NC(=O)[C@@H]1CCC(=O)N1 [[D-Ala^6, Pro^9NEt]-LH-RH, reference compound]		
	pGlu-His-Trp-Ser-Tyr-D-Nal-Npg-Arg-Pro-NEt (peptide)		pKi [1]: 9.5 -log Ki
33.5 ± 3.5	CCNC(=O)[C@@H]1CCCN1C(=O)[C@H](CCCNC(=N)N)NC(=O)[C@H](CC(C)C)NC(=O)[C@@H](CC(C)C)NC(=O)[C@H](Cc1ccc(O)cc1)NC(=O)[C@H](CO)NC(=O)[C@H](Cc1c[nH]c2ccccc12)NC(=O)[C@H](Cc1c[nH]cn1)NC(=O)[C@@H]1CCC(=O)N1 [Leuprorelin, reference compound]		
	CC(C)(C)C[C@H](NC(=O)[C@@H](Cc1cccnc1)NC(=O)[C@H](Cc1ccc(O)cc1)NC(=O)[C@H](CO)NC(=O)[C@H](Cc1c[nH]c2ccccc12)NC(=O)[C@H](Cc1c[nH]cn1)NC(=O)[C@@H]1CCC(=O)N1)C(=O)N[C@@H](CCCNC(=N)N)C(=O)N1CCC[C@H]1C(=O)NCC(N)=O [Example 20, pGlu-His-Trp-Ser-Tyr-D-Pal-Npg-Arg-Pro-Gly-NH2] ([pGlu]HWSY[d3Pal][tBuAla]RPG-NH2)	range of potency similar to that of leuprorelin or tryptorelin	Total plasma testosterone (LH-RH receptors; Table 3, vehicle 4.3 ± 1.2): 24.9 ± 5.0 nmol/L
24.8 ± 4.1	pGlu-His-Trp-Ser-Tyr-D-Trp-Ada-Arg-Pro-Gly-NH2 [Example 30]		
	CCNC(=O)[C@@H]1CCCN1C(=O)[C@H](CCCNC(=N)N)NC(=O)[C@H](CC(C)(C)C)N(C)C(=O)[C@@H](CC(C)C)NC(=O)[C@H](Cc1ccc(O)cc1)NC(=O)[C@H](CO)NC(=O)[C@H](Cc1c[nH]c2ccccc12)NC(=O)[C@H](Cc1c[nH]cn1)NC(=O)[C@@H]1CCC(=O)N1 [Example 23, pGlu-His-Trp-Ser-Tyr-D-Leu-MeNpg-Arg-Pro-NEt]	very strong agonistic activity; also recorded: more potent LH-RH agonists than current therapeutic LH-RH analogues	Total plasma testosterone (LH-RH receptors; Table 3, vehicle 4.3 ± 1.2): 49.4 ± 4.6 nmol/L
